In patent US20200237700A1, “METHODS OF REDUCING OR PREVENTING OXIDATION OF SMALL DENSE LDL OR MEMBRANE POLYUNSATURATED FATTY ACIDS” (Amarin Pharmaceuticals Ireland Limited, priority 2015, published 2020):

Experiment: Glucose-induced membrane lipid peroxidation (LOOH) in multilamellar vesicles, CHOD-iodide assay (Example 4)
Assay type: biochemical
Conditions: for inhibited the peroxidative effects of glucose (LOOH formation): vs glucose alone
Description: Vitamin E (α-tocopherol) was also purchased from Sigma-Aldrich and prepared in ethanol at 1.0 mM (ε=3.06×10^4 M^−1 cm^−1 at 294 nm) just prior to experimental use. […] All test compounds were further diluted in ethanol or aqueous buffer as needed. Glucose was prepared in saline buffer (0.5 mM HEPES, 154 mM NaCl, pH 7.3) at 11.0 mM (200 mg/dL). CHOD-iodide color reagent (stock) was prepared, with slight modification, as described by from El-Saadani et al. (J. […] Samples were shell-dried under nitrogen gas and placed under vacuum for 1 h to remove residual solvent. […] Lipid suspensions were then vortexed for 3 min at ambient temperature to form MLVs. All MLV samples were subjected to time-dependent autoxidation by incubating at 37° C. in an uncovered, shaking water bath. This method allows lipid peroxidation to occur gradually without requiring the use of exogenous initiators. Small aliquots (5-100 μL) of each sample were removed, immediately following MLV preparation (0 hour) and after exposing samples to oxidative conditions for 72 or 96 hour, and combined with 1.0 mL of activated CHOD-iodide color reagent. Aliquot volume was reduced with each successive time point to ensure that spectrophotometric readings were within the optimal adsorption range. Test samples were covered and incubated in darkness at room temperature for at least 4 hr. Sample absorbances were then measured against a CHOD blank at 365 nm using a Beckman DU-640 spectrophotometer. The CHOD colorimetric assay is based on the oxidation of iodide (I^−) by lipid hydroperoxide (LOOH) to form triiodide (I3^−), the quantity of which is directly proportional to the amount of LOOH present in the lipid sample. The molar absorptivity (E) of I3^− is 2.46×10^4 M^−1 cm^−1 at 365 nm. […] The concentration of glucose selected was consistent with previous experimental studies of hyperglycemia under controlled laboratory conditions or observed in well-defined animal models of Type II diabetes following a glucose challenge. […] Values in FIG. 1 are mean±S.D. (N=6). EPA inhibited the peroxidative effects of glucose by 88% and 86% at 72 and 96 hours, respectively, which was highly significant (p<0.001) as compared to glucose treatment alone. […] Overall ANOVA-0 hour data: p=0.6655, F=0.4185; 72 hour data: p<0.0001, F=428.72; 96 hour data: p<0.0001, F=322.01.

CC/C=C\C/C=C\C/C=C\C/C=C\C/C=C\CCCC(=O)O [EPA, cis-5,8,11,14,17-eicosapentaenoic acid]
effect on LOOH formation / lipid peroxidation (72- and 96-hour time points, 1:30 drug-to-phospholipid mole ratio, glucose): significantly inhibited LOOH formation | inhibited the peroxidative effects of glucose (LOOH formation) (72 hours, glucose 200 mg/dL, 1:30 drug-to-phospholipid mole ratio): 88% | inhibited the peroxidative effects of glucose (LOOH formation) (96 hours, glucose 200 mg/dL, 1:30 drug-to-phospholipid mole ratio): 86% | antioxidant effects of separate treatments (LOOH formation) (each at 1.0 μM, glucose 200 mg/dL, 96 hours): potent antioxidant effects
